Measured values reported in patent US20100249461A1, “TRIARYLAMINE DERIVATIVE” (priority 2007, published 2010).

How the values were obtained:
Format in all cases: physicochemical
[1] = Heat resistance of PMMA film sample (colorant residual rate); details: 5% by weight in PMMA film on PET; 80° C. for 400 hours; absorbance at maximum absorption wavelength after vs before
Method: (§1) 2.5 g of PMMA and 0.125 g of the triarylamine derivative were dissolved in 25 ml of dichloromethane, and the solution was coated on a 100 μm-thick PET film. This was dried at 80° C. for 2 hours under reduced pressure to prepare a sample for assessment having a thickness of from 2 to 3 μm. The sample for assessment contained the triarylamine derivative at 5% by weight based on PMMA.
The sample for assessment obtained above was heat-treated at 80° C. for 400 hours. The absorbance of the assessment sample at the maximum absorption wavelength of the triarylamine derivative (colorant) was measured, and a colorant residual rate (%) was obtained as a ratio of the absorbance after heat treatment relative to the absorbance before heat treatment.

[2] = Wet heat resistance of PMMA film sample (colorant residual rate); details: 5% by weight in PMMA film on PET; 60° C. and relative humidity of 90% for 200 hours; absorbance after vs before
Method: as §1
The sample for assessment obtained above was subjected to wet heat treatment at 60° C. and a relative humidity of 90% for 200 hours. The absorbance of the assessment sample at the maximum absorption wavelength of the triarylamine derivative (colorant) was measured, and a colorant residual rate (%) was obtained as a ratio of the absorbance after wet heat treatment relative to the absorbance before wet heat treatment.

[3] = Light resistance of PMMA film sample (colorant residual rate); details: 5% by weight in PMMA film on PET; xenon lamp 170,000 lux, UV cut filter, 170 hours; absorbance after vs before
Method: as §1
The sample for assessment obtained above was irradiation-treated for 170 hours with a xenon lamp (170,000 lux, using an UV cut filter). The absorbance of the assessment sample at the maximum absorption wavelength of the triarylamine derivative (colorant) was measured, and a colorant residual rate (%) was obtained as a ratio of the absorbance after irradiation treatment relative to the absorbance before irradiation treatment.

[4] = Solubility in 2-butanone (MEK)
Method: Solubility (w/v %) of the triarylamine derivative in 2-butanone (MEK) was measured.

SMILES | Heat Resistance (colorant residual rate) [1] | Wet Heat Resistance (colorant residual rate) [2] | Light Resistance (colorant residual rate) [3] | Solubility (w/v) [4]
CCCCN(CCCC)c1ccc([N+](=C2C=CC(=[N+](CCCC)CCCC)CC2)c2ccc(N(CCCC)CCCC)cc2)cc1 [drawing 14] | 80% | 45% | 98% | 16% w/v %
CCCCN(CCCC)c1ccc([N+](=C2C=CC(=[N+](CCCC)CCCC)CC2)c2ccc(N(CCCC)CCCC)cc2)cc1 [drawing 15] | 0% | 19% | 80% | 15% w/v %
